From ChEMBL document CHEMBL2429744, “Anticancer activities of an antimicrobial peptide derivative of Ixosin-B amide” (Bioorg Med Chem Lett, 2013) come the findings set out here.

Calls of active or inactive are those of the source. No cut-off for these calls is given here. Peptide text beside a SMILES is read from it.

The term inhibition denotes the percentage by which the read-out fell short of the control. The term IC50 denotes the concentration that gives 50% inhibition.

For series [1], the system named is MCF7. The series can be described thus: Antiproliferative activity against human MCF7 cells assessed as cell viability at 100 uM after 48 hrs by MTT assay. The series is classed as functional, cell-based.
Series [2] deals with MCF7. The series can be described thus: Antimigratory activity against human MCF7 cells assessed as inhibition of wound-healing activity at 5 uM after 48 hrs by phase contrast microscopic analysis relative to untreated control. The series is classed as functional.
Series [3] concerns MCF7. Put plainly: Ratio of cytotoxic activity to antimigratory activity against human MCF7 cells. The series is classed as functional.
For series [4], the system named is MCF7. Put plainly: Antimigratory activity against human MCF7 cells assessed as inhibition of wound-healing activity at 1 uM after 24 hrs by phase contrast microscopic analysis relative to untreated control. The series is classed as functional, cell-based.
In series [5] the test system is MCF7. The series can be described thus: Inhibition of F-actin structural changes in human MCF7 cells at 25 uM after 24 to 48 hrs using AlexaFluor 488 and TRITC staining by confocal microscopic analysis. The series is classed as functional, cell-based.
Series [6] has as its system MCF7. The series can be described thus: Induction of alpha-tubulin mislocalization in human MCF7 cells assessed as appearance of aggregated protein around nucleus at 5 uM after 24 to 48 hrs by confocal microscopic analysis relative to untreated control. The series is classed as functional, cell-based.
Series [7] concerns MCF7. Put plainly: Induction of morphological changes in human MCF7 cells assessed as cell shrinkage at 5 uM after 24 to 48 hrs by confocal microscopic analysis relative to untreated control. The series is classed as functional, cell-based.
The subject of series [8] is MCF7. Put plainly: Induction of morphological changes in human MCF7 cells at 1 uM after 24 to 48 hrs by confocal microscopic analysis relative to untreated control. The series is classed as functional, cell-based.
Series [9] relates to MCF7. Put plainly: Antiproliferative activity against human MCF7 cells assessed as cell viability after 48 hrs by MTT assay. The series is classed as functional, cell-based. As to conditions: MCF7, 48 h. For orientation: Tetrazolium dyes change colour on reduction, which living cells bring about.
The subject of series [10] is MCF7. The series can be described thus: Induction of cell death in human MCF7 cells at 25 uM after 24 hrs. The series is classed as cell-based. The conditions noted are these: mcf7, 24 h.
For series [11], the system named is MCF7. The series can be described thus: Induction of cortical alpha-tubulin structural changes in human MCF7 cells at 25 uM after 24 to 48 hrs using AlexaFluor 488 and TRITC staining by confocal microscopic analysis relative to untreated control. The series is classed as functional, cell-based.

Regarding `CC(C)C[C@H](NC(=O)[C@H](CCCNC(=N)N)NC(=O)[C@@H](N)CCCCN)C(=O)N[C@@H](CCCNC(=N)N)C(=O)N[C@@H](CCCNC(=N)N)C(=O)N[C@H](C(=O)N[C@@H](Cc1c[nH]c2ccccc12)C(=O)N[C@@H](CCCNC(=N)N)C(=O)N[C@@H](CCCNC(=N)N)C(=O)N[C@@H](Cc1c[nH]c2ccccc12)C(=O)N[C@@H](CCCNC(=N)N)C(N)=O)C(C)C` (H-KRLRRVWRRWR-NH2), the outcome in the series on MCF7 [1] was inactive. Also, the inhibition entry in the series with MCF7 [2] was “inactive”.

For the compound `CC(C)C[C@H](NC(=O)[C@H](Cc1c[nH]c2ccccc12)NC(=O)[C@@H](N)CCCCN)C(=O)N[C@@H](CCCNC(=N)N)C(=O)N[C@@H](CCCNC(=N)N)C(=O)N[C@H](C(=O)N[C@@H](Cc1c[nH]c2ccccc12)C(=O)N[C@@H](CCCNC(=N)N)C(=O)N[C@@H](Cc1c[nH]c2ccccc12)C(=O)N[C@@H](Cc1c[nH]c2ccccc12)C(=O)N[C@@H](CCCNC(=N)N)C(N)=O)C(C)C` (H-KWLRRVWRWWR-NH2), the Ratio in the series on MCF7 [3] is 10. Also, the inhibition at 5 µM with MCF7 [2] (MCF7, 48 h) turned out to be 40%. In addition, the outcome in the series on MCF7 [4] and in the series on MCF7 [8] was inactive. For the same compound, the inhibition entry with MCF7 [5] and with MCF7 [11] was “Active” throughout. Further, the outcome with MCF7 [6] and in the series with MCF7 [7] was Active. The IC50 in the series on MCF7 [9] turned out to be 61.5 µM. For the same compound, in the series on MCF7 [10], the Activity result is listed as “Toxic”.
